Laboratory results reported in patent publication US20150087627A1, “COMBINATION OF KINASE INHIBITORS AND USES THEREOF” (Intellikine LLC, priority 2011, published 2015).
pIC50: −log10 of the molar value.

What was measured:
marginal zone B cells = assay: Marginal zone B cells in mouse spleen (FACS); type: in vivo; conditions: 60 mg/kg, spleens harvested 2 hrs after the last dose, FIG. 9
Protocol: The effect of the compounds on the localization/viability of marginal zone B cells in the spleen is also evaluated at the conclusion of treatment.
Spleens were harvested 2 hrs after the last dose, processed and stained with appropriate antibodies (marginal zone B cell: B220+;CD23−;CD21hi) and analyzed for staining on GUAVA EasyCyte FACS machine using Guava Cytosoft 5.2 software.

PI3K α (p110α/p85α) = target: T1, PI3K α (p110α/p85α) (Homo sapiens, UniProt P42336); assay: PI 3-Kinase (human) HTRF assay, PI3K α; type: biochemical; conditions: over mTOR and other PI3K isoforms; FIG. 6C
T1 construct: purchased Upstate / Millipore Corporation

B cell function = assay: TNP-Ficoll immunization, antibody production (FIG. 8); type: in vivo; conditions: mice immunized with TNP-Ficoll, 7 days, 70 mg/kg GDC0941, 30, 60 or 120 mg/kg Compound A
Protocol: Mice were immunized with TNP-Ficoll and treated with 1) vehicle; 2) 70 mg/kg GDC0941; 3) 30 mg/kg Compound A; 4) 60 mg/kg Compound A; or 5) 120 mg/kg Compound A for 7 days. Antibody production was measured as a percentage of control group that were treated with vehicle.

[1] = system: tumor cells harboring PI3K α mutations; assay: Tumor cell proliferation panel (FIG. 13); type: cell-based
[2] = system: anti-TNP antibody production; assay: TNP-Ficoll T-cell independent B-cell activation assay; type: in vivo, mice; conditions: 30, 60 or 120 mg/kg for 7 days, FIG. 8
Protocol: To test the effects of the compounds of the present invention in suppressing T cell independent antibody production, the TNP-Ficoll B-cell activation assay is used as described herein. Compounds of the present invention are dissolved in an appropriate vehicle (e.g. 5% 1-methyl-2-pyrrolidinone, 85% polyethylene glycol 400, 10% Solutor). Compounds are administered orally approximately 1 hr before TNP-Ficoll treatment to 4-10 week old mice. To study the effects of the compounds on B-cell activation, one set of mice are grouped according to the following table:
Four animals in group 1, and eight animals in groups 2 to 7 are euthanized in CO2 2 hours after the last compound administration on day 7. […]
Serum samples are analyzed for anti-TNP antibody titers by ELISA as described herein. […] HRP substrate (200 μl ABTS solution+30% H2O2+10 ml citrate buffer) is added to each well at 100 μl/well, incubated 2-20 minutes in the dark and the amount of anti-TNP IgG3 is determined spectrophotometrically at 405 nm. Similarly, anti-TNP IgM and total anti-TNP Ab are determined using anti-mouse IgM-HRP and anti-mouse Ig-HRP respectively.
Antibody production was measured using ELISA and plotted as a percentage of control group that were treated with vehicle.

[3] = system: preclinical breast cancer model; assay: Preclinical breast cancer model, tumor weight / volume; type: in vivo; conditions: 70 mg/kg Pan-PI3K inhibitor; 60 mg/kg compound A; FIG. 9 left panel
[4] = Steady state blood glucose in nude mice (Example 41); type: in vivo, Mus musculus; conditions: mean AUC after the last dose (Day 28)
Protocol: Blood glucose levels were measured via a tail knick using Abbott's “Freestyle Lite” Handheld Blood Glucose Monitor (Abbott Laboratories) at 15, 30, 60, 90, 120, and 1440 minutes after the last dose (Day 28).

PC3 cells = assay: Proliferation of tumor cells (CellTiter-Glo); type: cell-based, human; conditions: read-out: cell proliferation IC50
Protocol: Cells comprising one or more mutations in PI3Kα, including but not limited to breast cancer cells (e.g., MDA-MB-361, T47D, SKOV-3), and cells comprising one or more mutations in PTEN including but not limited to prostate cancer cells (e.g., PC3), are typically grown in cell growth media such as DMEM supplemented with fetal bovine serum and/or antibiotics, and grown to confluency. Cells are then treated with various concentrations of test compound for about 2 hours and subsequently lysed in cell lysis buffer. Lysates are subjected to SDS-PAGE followed by Western blot analysis to detect downstream signaling markers, including but not limited to pAKT(S473), pAKT(T308), pS6, and p4E-BP1.
Cells were seeded at 5000-10,000 per well in a 96 well flat bottom plate 90 ul growth media. Pre-diluted compound (at 10 times the final concentration) or DMSO (control) was added. The compounds were prepared such that the dose range extended from a final concentration of 30 μM to 14 nM via 3-fold serial dilutions (8 point curve). The final DMSO concentration was 0.3%. Cells were incubated for 72 hours at 37° C. in a CO2 incubator. After 72 hours, proliferation was measured using CellTiter-Glo Luminescent reagent (Promega, PR-G7573). […] Luminescence was read on a PerkinElmer EnVision plate reader. […] Inhibition % was calculated as: 1−(cells+inhibitor)−background signal)/(cells+DMSO)−background signal)×100.

[5] = system: Akt phosphorylation at serine 473; assay: Western blot of Akt phosphorylation at serine 473 (FIG. 12); type: cell-based
Akt phosphorylation = assay: Western blot of Akt phosphorylation at serine 473 and threonine 308 (FIG. 7); type: cell-based; conditions: serine 473 versus threonine 308
[6] = system: mTORC1-dependent NRDG1 phosphorylation; assay: Western blot of NRDG1 phosphorylation (FIG. 5B); type: cell-based

T1 sequence (P42336 whole entry, canonical isoform): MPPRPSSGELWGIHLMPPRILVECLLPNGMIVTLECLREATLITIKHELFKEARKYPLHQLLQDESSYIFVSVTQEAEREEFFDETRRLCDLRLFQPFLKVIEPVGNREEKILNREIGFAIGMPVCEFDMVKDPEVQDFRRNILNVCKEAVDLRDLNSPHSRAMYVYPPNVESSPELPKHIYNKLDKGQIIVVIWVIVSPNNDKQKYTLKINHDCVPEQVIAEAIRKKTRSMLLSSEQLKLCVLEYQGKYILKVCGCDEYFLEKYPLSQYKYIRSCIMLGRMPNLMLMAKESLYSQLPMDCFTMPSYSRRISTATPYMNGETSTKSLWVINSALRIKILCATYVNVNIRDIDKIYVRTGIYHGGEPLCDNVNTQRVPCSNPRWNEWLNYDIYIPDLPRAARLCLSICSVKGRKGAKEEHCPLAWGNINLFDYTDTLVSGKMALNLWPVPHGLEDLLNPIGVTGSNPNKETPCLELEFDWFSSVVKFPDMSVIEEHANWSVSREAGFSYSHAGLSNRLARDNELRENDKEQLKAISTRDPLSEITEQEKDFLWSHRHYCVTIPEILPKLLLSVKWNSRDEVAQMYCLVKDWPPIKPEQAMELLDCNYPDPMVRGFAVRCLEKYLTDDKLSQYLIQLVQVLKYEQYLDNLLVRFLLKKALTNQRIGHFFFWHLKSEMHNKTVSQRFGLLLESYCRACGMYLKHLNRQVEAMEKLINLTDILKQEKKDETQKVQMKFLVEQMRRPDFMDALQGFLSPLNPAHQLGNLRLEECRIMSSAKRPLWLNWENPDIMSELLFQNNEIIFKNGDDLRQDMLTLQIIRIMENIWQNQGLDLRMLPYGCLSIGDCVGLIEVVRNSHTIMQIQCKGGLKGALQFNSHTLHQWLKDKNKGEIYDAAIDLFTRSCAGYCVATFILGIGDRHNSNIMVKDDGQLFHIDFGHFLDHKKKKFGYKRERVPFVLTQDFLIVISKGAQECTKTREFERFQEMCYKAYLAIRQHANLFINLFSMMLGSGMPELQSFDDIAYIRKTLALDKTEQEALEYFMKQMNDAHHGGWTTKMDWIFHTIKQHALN
T1 sequence (P27986 whole entry partner, canonical isoform): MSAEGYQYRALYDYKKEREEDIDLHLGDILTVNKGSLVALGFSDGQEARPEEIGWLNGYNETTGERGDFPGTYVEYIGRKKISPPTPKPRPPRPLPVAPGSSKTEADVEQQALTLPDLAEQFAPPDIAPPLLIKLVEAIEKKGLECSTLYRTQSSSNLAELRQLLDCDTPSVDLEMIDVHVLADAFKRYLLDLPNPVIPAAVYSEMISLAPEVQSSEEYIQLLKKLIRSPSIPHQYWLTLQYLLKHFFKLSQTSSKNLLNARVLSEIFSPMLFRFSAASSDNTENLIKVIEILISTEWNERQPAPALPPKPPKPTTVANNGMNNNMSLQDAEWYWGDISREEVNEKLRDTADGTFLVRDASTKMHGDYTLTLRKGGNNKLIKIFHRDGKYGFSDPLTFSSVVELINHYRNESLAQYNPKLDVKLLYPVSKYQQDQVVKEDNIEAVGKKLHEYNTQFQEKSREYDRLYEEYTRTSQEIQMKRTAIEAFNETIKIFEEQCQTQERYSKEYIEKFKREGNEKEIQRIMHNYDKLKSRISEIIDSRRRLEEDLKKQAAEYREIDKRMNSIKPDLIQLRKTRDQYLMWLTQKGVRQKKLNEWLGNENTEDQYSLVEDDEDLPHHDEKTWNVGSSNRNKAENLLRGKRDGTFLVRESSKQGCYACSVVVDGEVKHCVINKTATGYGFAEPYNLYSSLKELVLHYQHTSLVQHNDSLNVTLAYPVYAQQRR

Row | SMILES | localization/viability of marginal zone B cells (marginal zone B cells) | specificity in inhibiting PI3K α (PI3K α (p110α/p85α)) | B cell function in vivo (antibody production as percentage of vehicle control) (B cell function) | proliferation of tumor cells [1] | B cell function in vivo (antibody production, ELISA) [2] | tumor weight of a breast cancer model [3] | Blood Glucose Fold Over Vehicle Control ([4]; 60 mg/kg QD) | Blood Glucose Fold Over Vehicle Control ([4]; 70 mg/kg QD 3on/4off) | Blood Glucose Fold Over Vehicle Control ([4]; 140 mg/kg QD 3on/4off) | Blood Glucose Fold Over Vehicle Control ([4]; 210 mg/kg QW) | pIC50 (PC3 cells) | Akt phosphorylation at serine 473 ([5]; PTEN-mutant cell line, FIG. 12B) | Akt phosphorylation at serine 473 ([5]; western blot, FIG. 12A) | inhibition of Akt phosphorylation (Akt phosphorylation) | sensitivity of mTORC1-dependent NRDG1 phosphorylation [6]
1 | Nc1nc2cc(-c3ccc4ncc(C(=O)N5CCOCC5)n4c3)ccc2o1 [Compound A] | does not affect | specificity of Compound A in inhibiting PI3K α over mTOR and other PI3K isoforms | not | preferentially inhibits proliferation of tumor cells harboring PI3K α mutations | not | reduction in tumor weight | 0.97 fold | 1.02 fold | 1.26 fold | 1.16 fold | < 5.00 | reduced inhibition of Akt phosphorylation at serine 473 | inhibition of Akt phosphorylation at serine 473 |  | 
2 | CC(C)n1nc(-c2ccc3oc(N)nc3c2)c2c(N)ncnc21 [Compound B] |  |  |  |  |  |  |  |  |  |  |  |  |  | differential inhibition of Akt phosphorylation at serine 473 over threonine 308 | sensitivity
